Experimental data from patent publication US9439874B2, “Food composition for nourishing, maintaining and cultivating a variety of stem cells and a method for manufacturing the same” (THE WRITER OF RESVERATROL BIOTECH R&D CO., LTD., priority 2012, dated 2016).

Key:
[1] = tested on: rat mesenchymal stem cells; settings: cited from earlier work
[2] = cited from earlier work
[3] = tested on: human gastric cancer BGC823 cells; settings: cited from earlier work
[4] = tested on: Lewis lung carcinoma; settings: mouse, in vivo; cited from earlier work
[5] = tested on: human telomerase reverse transcriptase (hTERT); settings: dose- and time-dependent; cited from earlier work
[6] = tested on: human lung adenocarcinoma A549 cells; settings: 20 μM, EGF-induced; cited from earlier work
[7] = tested on: nematodes, drosophila, African Carp and mouse; settings: cited from earlier work
[8] = tested on: cervical cancer Hela cells; settings: cited from earlier work
[9] = tested on: L-8; settings: mouse, in vivo; cited from earlier work
[10] = isomerization under irradiation of UV analyzer; format: physicochemical; settings: UV analyzer 136 μw/cm^2, embedded vs unembedded
Text: 2. Solutions to the problem of cis & trans structures and transformation of resveratrol. Trans-resveratrol is very instable and will transform into cis-resveratrol under the UV irradiation. After its aqueous solution (pH1-7) kept in dark place for 28 day, 4.7% of the trans-resveratrol will transform into cis-resveratrol. Low water solubility and poor stability under UV irradiation restrict the all-purpose application. Therefore, HP-β-CD is used to embed the resveratrol into inclusion compound. […] Moreover, the food formula packaged by capsule solves the problems of oxidization misgivings and stability.

[11] = tested on: human laryngeal cancer Hep-2 cell; settings: cited from earlier work
[12] = tested on: cancer stem cells; settings: cited from earlier work
[13] = tested on: MDA-MB-231 cell; settings: combination with TRAIL; cited from earlier work
[14] = tested on: malignant glioma cell line U87 and cancer stem cells (CSCs); settings: cited from earlier work
[15] = tested on: esophageal cancer cell; settings: cited from earlier work
[16] = tested on: Lymphoma Raji cells; settings: in vitro; cited from earlier work

O=c1c(O)c(-c2ccc(O)c(O)c2)oc2cc(O)cc(O)c12 [quercetin]
proliferation and differentiation of mesenchymal stem cells of bone marrow [1]: promote
expression of BMP2 mRNA ([1]; differentiation of mesenchymal stem cells): increase

Oc1ccc(C=Cc2cc(O)cc(O)c2)cc1 [resveratrol]
solubility in organic solvents ([2]; ethyl ether, chloroform, methanol, ethanol, acetone, acetic ether): soluble
solubility in water ([2]; water): hardly soluble (slightly soluble)
proliferation of BGC823 cells [3]: inhibit
telomerase activity in BGC823 ([3]; with the extension of the time): declined
growth of Lewis lung carcinoma in mice [4]: inhibiting the growth
expression of hTERT mRNA and protein [5]: down-regulated
A549 cells' invasion [6]: inhibit
prolongation of life [7]: 30-75%
in vitro growth of cervical cancer Hela cells [8]: obvious inhibition effects
tumor-bearing mice L-8 generation [9]: inhibit
isomerization under UV irradiation [10]: quickens up isomerization
Hep-2 cell proliferation [11]: suppress
cancer stem cells survival ([12]; high concentration of resveratrol with radiotherapy): one-third
enhancement of radiotherapy ([12]; high concentration of resveratrol, mice bearing tumor): 30%-50%
TRAIL-induced cell apoptosis [13]: enhanced
apoptosis of U87 and cancer stem cells [14]: induce
esophageal cancer cell apoptosis [15]: induce
IL-8 mRNA expression of lymphoma Raji cells [16]: inhibit
proliferation of lymphoma Raji cells [16]: inhibit
